Laboratory results published in US20040235866A1, “Lymphocytic activation inhibitor and remedial agent for autoimmune disease” (priority 2001, published 2004).
pIC50: −log10 of the molar value. Like-named read-outs stand apart in the source and are kept apart here.

Assays:
[1] = test system: spleen lymphocytes cultured with PLP139-151; assay: Inhibition effect for lymphocyte activation (antigen-specific division, 3H-thymidine uptake); type: cell-based; conditions: female SJL/J mouse spleen lymphocytes, PLP139-151 stimulation, 5 days culture, read-out: IC 50 (inhibition of antigen-specific division of the lymphocytes)
From the text: Immunizing a mounse with a partial peptide of a proteolipid protein (PLP), a central myelin protein, induces a chronic encephalomyelitis therein. Sampling lymphocytes from the spleen of the mouse and stimulating by an antigen in vitro allow the induction of antigen-specific activation and division of the lymphocyte. The effect of a drug to the reaction was examined to evaluate the inhibition effect of the drug for lymphocyte activation. Specifically, a female SJL/J mouse was immunized with an adjuvant containing a PLP partial peptide (PLP139-151) under ether anesthesia. On the day of immunization and 2 days thereafter, deactivated Bordetella pertussis (one billion/mouse) was intravenously administered. On 7th or 8th day after the immunization, the mouse was killed by ether anesthesia and then the spleen thereof was extracted to isolate spleen lymphocytes. […] The compound numbers are the same as those described in the previous list (hereinafter, the same).

[2] = test system: experimental encephalomyelitis model (PLP peptide p139-151 immunized mouse); assay: Effect in an experimental encephalomyelitis model; type: in vivo; conditions: female SJL/J mouse, 200 mg/kg orally from 5th day to 12th day after initial sensitization, FIG. 2
Procedure: 100 μl of a Freund's complete adjuvant (Difco, containing 0.6 mg/ml of M. tuberculosis H37Ra) containing the PLP peptide (p139-151, Toray Research Center) was subcutaneously injected to a female SJL/J mouse in the back thereof under ether anesthesia for immunization (initial sensitization). Two days after, deactivated Bordetella pertussis was intravenously injected in an amount of about one billion per mouse. Seven days after, immunization was conducted again with the antigen. Over several weeks thereafter, abnormalities in limbs, a tail, and righting reflexes were graded into scored levels and recorded. The subjective compound was orally administered in an amount of 200 mg/kg from 5th day to 12th day after the initial sensitization. In experiments, 12 mice were used for each of a control group and a drug-administered group.
Note that, the experimental encephalomyelitis model described above is a model in which a lymphocyte activated by reacting with an immunized PLP peptide causes an immunoreaction to induce encephalomyelitis, and is widely recognized as a model for evaluating a pharmacological effect of a compound having a lymphocyte activation inhibition effect (e.g., Agents and Actions, 27, 351-355 (1989); and Agents and Actions, 35, 79-84 (1992)).

mice = assay: Successive 15-day administration to mice (toxicity observation); type: in vivo; conditions: 100 mg/kg and 200 mg/kg successively for 15 days
From the text: It is thus considered that the compound represented by the general formula (I) has low toxicity.

[3] = test system: mouse collagen-induced arthritis; assay: Effect on mouse collagen-induced arthritis; type: in vivo; conditions: DBA/1JN male mouse, FIG. 1
Procedure: A DBA/1JN male mouse (7 weeks of age) was sensitized by intracutaneously injecting in the tail part thereof with 0.1 ml of an emulsion solution obtained by mixing a 0.3% bovine-derived type II collagen solution with the same amount of a Freund's complete adjuvant. After 3 weeks after initial sensitization, a booster was conducted in a similar way to cause arthritis. The subjective compound was made into a solution (5 mg/ml) according to a general method, and the day of the booster and 3 days thereafter, the solution was intravenously administered in an amount of 10 ml/kg (50 mg/kg). In experiments, 8 mice were used for each of a control group and a drug-administered group. The condition of arthritis was evaluated macroscopically on limbs and graded into 5 score levels (0; normal, 1; flare on a finger joint, 2; slight edema on an entire leg, 3; edema on an entire leg, and 4; severe edema on an entire leg), to be shown as a total sum. […] The effect lasted even after the second administration and the inhibition effect was recognized even 36 days after the initial sensitization, i.e., 12 days after administration (FIG. 1). […]

Nc1ccc(S(=O)(=O)Nc2cccc3c(Cl)c[nH]c23)cc1 [Compound 3, 4-Amino-N-(3-chloro-1H-indol-7-yl)benzenesulfonamide]
pIC50 ([1]; Mus musculus, Lymphocyte): 5.64

CS(=O)(=O)Nc1ccc(S(=O)(=O)Nc2cccc3c(Cl)c[nH]c23)cc1 [Compound 4, N-(3-Chloro-1H-indol-7-yl)-4-(methanesulfonamido)-benzenesulfonamide]
pIC50 ([1]; Mus musculus, Lymphocyte): 5.84

N#Cc1ccc(S(=O)(=O)Nc2cccc3c(Cl)c[nH]c23)cc1 [Compound 10, N-(3-Chloro-1H-indol-7-yl)-4-cyanobenzenesulfonamide]
pIC50 [1]: 6.23
Onset of abnormality (limbs, tail, righting reflexes score) [2]: delayed expression of abnormality
Severity of abnormality (limbs, tail, righting reflexes score) [2]: alleviated the severity
Body weight (mice): dose-dependent weight increases
Toxicity observation (mice): no observation showing toxicity

N#Cc1c[nH]c2c(NS(=O)(=O)c3cccc(Cl)c3)cccc12 [Compound 17, 3-Chloro-N-(3-cyano-1H-indol-7-yl)benzenesulfonamide]
pIC50 ([1]; Mus musculus, Lymphocyte): 6.36
Onset of abnormality (limbs, tail, righting reflexes score) [2]: delayed expression of abnormality
Severity of abnormality (limbs, tail, righting reflexes score) [2]: alleviated the severity
Body weight (mice): dose-dependent weight increases
Toxicity observation (mice): no observation showing toxicity

NS(=O)(=O)c1ccc(S(=O)(=O)Nc2cccc3c(Cl)c[nH]c23)cc1 [Compound 19, N-(3-Chloro-1H-indol-7-yl)-4-sulfamoylbenzenesulfonamide]
pIC50 ([1]; Mus musculus, Lymphocyte): 5.74
Effect on crisis and development of arthritis (arthritis score, total sum) ([3]; 50 mg/kg intravenously on the day of the booster and 3 days thereafter): obvious inhibition effect for the crisis and development of arthritis
Duration of the inhibition effect on arthritis, days after the initial sensitization ([3]; 50 mg/kg intravenously, i.e. 12 days after administration): ≥ 36 days

N#Cc1ccc(S(=O)(=O)Nc2cccc3c(Cl)c[nH]c23)cc1 [Compound 28, 4-Cyano-N-(3-chloro-1H-indol-7-yl)benzenesulfonamide]
pIC50 [1]: 5.54

NC(=O)c1ccc(S(=O)(=O)Nc2cccc3c(Cl)c[nH]c23)cc1 [Compound 29, 4-Carbamoyl-N-(3-chloro-1H-indol-7-yl)benzenesulfonamide]
pIC50 ([1]; Mus musculus, Lymphocyte): 5.69

Nc1ccncc1S(=O)(=O)Nc1cccc2c(Cl)c[nH]c12 [Compound 33, 4-Amino-N-(3-chloro-1H-indol-7-yl)-3-pyridinesulfonamide]
pIC50 ([1]; Mus musculus, Lymphocyte): 6.33

NS(=O)(=O)CCc1ccc(S(=O)(=O)Nc2cccc3c(Cl)c[nH]c23)cc1 [Compound 35, N-(3-Chloro-1H-indol-7-yl)-4-(2-sulfamoylethyl)-benzenesulfonamide]
pIC50 ([1]; Mus musculus, Lymphocyte): 6.17

CS(=O)(=O)CCc1ccc(S(=O)(=O)Nc2cccc3c(Cl)c[nH]c23)cc1 [Compound 36, N-(3-Chloro-1H-indol-7-yl)-4-[2-(methylsulfonyl)ethyl]-benzenesulfonamide]
pIC50 ([1]; Mus musculus, Lymphocyte): 6.11

N#Cc1c[nH]c2c(NS(=O)(=O)c3ccc(N)nc3)cccc12 [Compound 37, 6-Amino-N-(3-cyano-1H-indol-7-yl)-3-pyridinesulfonamide]
pIC50 ([1]; Mus musculus, Lymphocyte): 6.19

N#Cc1cccc(S(=O)(=O)Nc2cccc3c(C#N)c[nH]c23)c1 [Compound 51, 3-Cyano-N-(3-cyano-1H-indol-7-yl)benzenesulfonamide]
pIC50 ([1]; Mus musculus, Lymphocyte): 6.21
Body weight (mice): dose-dependent weight increases
Toxicity observation (mice): no observation showing toxicity

CS(=O)(=O)NCc1ccc(S(=O)(=O)Nc2cccc3c(Cl)c[nH]c23)cc1 [Compound 53, N-(3-Chloro-1H-indol-7-yl)-4-[(methanesulfonamido)methyl]-benzenesulfonamide]
pIC50 ([1]; Mus musculus, Lymphocyte): 6.13

CS(=O)(=O)NCCc1ccc(S(=O)(=O)Nc2cccc3c(Cl)c[nH]c23)cc1 [Compound 62, N-(3-Chloro-1H-indol-7-yl)-4-[2-(methanesulfonamido)ethyl]-benzensulfonamide]
pIC50 ([1]; Mus musculus, Lymphocyte): 6.24

CCNS(=O)(=O)c1ccc(S(=O)(=O)Nc2cccc3c(Cl)c[nH]c23)cc1 [Compound 69, N-(3-Chloro-1H-indol-7-yl)-4-(N-ethylsulfamoyl)-benzenesulfonamide]
pIC50 ([1]; Mus musculus, Lymphocyte): 6.23

CCS(=O)(=O)Nc1ccc(S(=O)(=O)Nc2cccc3c(Cl)c[nH]c23)cc1 [Compound 70, N-(3-Chloro-1H-indol-7-yl)-4-(ethanesulfonamido)-benzenesulfonamide]
pIC50 ([1]; Mus musculus, Lymphocyte): 5.85

CNC(=O)c1ccc(S(=O)(=O)Nc2cccc3c(Cl)c[nH]c23)cc1 [Compound 72, N-(3-Chloro-1H-indol-7-yl)-4-(N-methylcarbamoyl)-benzenesulfonamide]
pIC50 ([1]; Mus musculus, Lymphocyte): 5.74

NS(=O)(=O)Cc1ccc(S(=O)(=O)Nc2ccc(Cl)c3c(Cl)c[nH]c23)cc1 [Compound 77, N-(3,4-Dichloro-1H-indol-7-yl)-4-(sulfamoylmethyl)-benzenesulfonamide]
pIC50 ([1]; Mus musculus, Lymphocyte): 6.01

CC(=O)N(C)c1ccc(S(=O)(=O)Nc2cccc3c(Cl)c[nH]c23)cc1 [Compound 79, N-(3-Chloro-1H-indol-7-yl)-4-(N-methylacetamido)-benzenesulfonamide]
pIC50 ([1]; Mus musculus, Lymphocyte): 6.44

Cc1ccc(NS(=O)(=O)c2cccc(C#N)c2)c2[nH]cc(C#N)c12 [Compound 94, 3-Cyano-N-(3-cyano-4-methyl-1H-indol-7-yl)-benzenesulfonamide]
pIC50 ([1]; Mus musculus, Lymphocyte): 6.60
Body weight (mice): dose-dependent weight increases
Toxicity observation (mice): no observation showing toxicity
